# Reference: PubChem BioAssay (NCI)
#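 GI50: concentration for 50% inhibition of growth. TGI: concentration producing complete growth inhibition.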
# Experiments:
# Assay in all cases: growth of human tumour cells (NCI), 384-well format
# [1] = system: 786-0 renal
# [2] = system: A498 renal
# [3] = system: A549 NSCLC
# [4] = system: ACHN renal
# [5] = system: BT-549 breast
# [6] = system: CAKI-1 renal
# [7] = system: COLO 205 colon
# [8] = system: DU-145 prostate
# [9] = system: EKVX NSCLC
# [10] = system: HCC-2998 colon
# [11] = system: HCT-116 colon
# [12] = system: HCT-15 colon
# [13] = system: HL-60(TB) leukemia
# [14] = system: HOP-62 NSCLC
# [15] = system: HOP-92 NSCLC
# [16] = system: HS 578T breast
# [17] = system: HT29 colon
# [18] = system: IGROV1 ovarian
# [19] = system: KM12 colon
# [20] = system: LOX IMVI melanoma
# [21] = system: M14 melanoma
# [22] = system: MALME-3M melanoma
# [23] = system: MCF7 breast
# [24] = system: MDA-MB-231 breast
# [25] = system: MDA-MB-468 breast
# [26] = system: MOLT-4 leukemia
# [27] = system: NCI-H322M lung
# [28] = system: NCI-H522 lung
# [29] = system: OVCAR-3 ovarian
# [30] = system: OVCAR-5 ovarian
# [31] = system: RPMI-8226 leukemia
# [32] = system: RXF 393 renal
# [33] = system: SF-268 CNS
# [34] = system: SF-295 CNS
# [35] = system: SF-539 CNS
# [36] = system: SK-MEL-28 melanoma
# [37] = system: SK-MEL-5 melanoma
# [38] = system: SN12C renal
# [39] = system: SR leukemia
# [40] = system: T-47D breast
# [41] = system: TK-10 renal
# [42] = system: UACC-257 melanoma
# [43] = system: UACC-62 melanoma
# [44] = system: UO-31 renal
structure (smiles),measurement,setting,value
CCOc1cc2ncc(C#N)c(Nc3ccc(OCc4ccccn4)c(Cl)c3)c2cc1NC(=O)/C=C/CN(C)C,GI50,[1],251 nM
same,TGI,[1],1230 nM
same,GI50,[2],89.6 nM
same,TGI,[2],1220 nM
same,GI50,[3],312 nM
same,TGI,[3],1740 nM
same,GI50,[4],61.1 nM
same,TGI,[4],1220 nM
same,GI50,[5],396 nM
same,TGI,[5],1520 nM
same,GI50,[6],98.7 nM
same,TGI,[6],759 nM
same,GI50,[7],3670 nM
same,TGI,[7],> 100000 nM
same,GI50,[8],143 nM
same,TGI,[8],1420 nM
same,GI50,[9],41.8 nM
same,TGI,[9],1240 nM
same,GI50,[10],1260 nM
same,TGI,[10],2520 nM
same,GI50,[11],473 nM
same,TGI,[11],1670 nM
same,GI50,[12],349 nM
same,TGI,[12],1500 nM
same,GI50,[13],197 nM
same,TGI,[13],639 nM
same,GI50,[14],1130 nM
same,TGI,[14],2350 nM
same,GI50,[15],351 nM
same,TGI,[15],1620 nM
same,GI50,[16],220 nM
same,TGI,[16],848 nM
same,GI50,[17],1230 nM
same,TGI,[17],2490 nM
same,GI50,[18],25.9 nM
same,TGI,[18],320 nM
same,GI50,[19],1200 nM
same,TGI,[19],2450 nM
same,GI50,[20],969 nM
same,TGI,[20],2150 nM
same,GI50,[21],276 nM
same,TGI,[21],1180 nM
same,GI50,[22],188 nM
same,TGI,[22],808 nM
same,GI50,[23],881 nM
same,TGI,[23],2100 nM
same,GI50,[24],754 nM
same,TGI,[24],2000 nM
same,GI50,[25],< 10 nM
same,TGI,[25],29 nM
same,GI50,[26],207 nM
same,TGI,[26],511 nM
same,GI50,[27],14.9 nM
same,TGI,[27],53 nM
same,GI50,[28],< 10 nM
same,TGI,[28],63.3 nM
same,GI50,[29],148 nM
same,TGI,[29],> 100000 nM
same,GI50,[30],864 nM
same,TGI,[30],> 100000 nM
same,GI50,[31],242 nM
same,TGI,[31],515 nM
same,GI50,[32],143 nM
same,TGI,[32],598 nM
same,GI50,[33],311 nM
same,TGI,[33],> 100000 nM
same,GI50,[34],> 100000 nM
same,TGI,[34],> 100000 nM
same,GI50,[35],2170 nM
same,TGI,[35],> 100000 nM
same,GI50,[36],> 100000 nM
same,TGI,[36],> 100000 nM
same,GI50,[37],183 nM
same,TGI,[37],474 nM
same,GI50,[38],140 nM
same,TGI,[38],> 100000 nM
same,GI50,[39],530 nM
same,TGI,[39],876 nM
same,GI50,[40],< 10 nM
same,TGI,[40],> 100000 nM
same,GI50,[41],71 nM
same,TGI,[41],> 100000 nM
same,GI50,[42],2150 nM
same,TGI,[42],> 100000 nM
same,GI50,[43],405 nM
same,TGI,[43],> 100000 nM
same,GI50,[44],267 nM
same,TGI,[44],> 100000 nM
